Measured values: a melting point compilation (Tetko et al.; mined from patent text by program, amines drawn as free bases though some values may be those of a salt)

Row | SMILES | melting point
1 | CCn1c(=O)c2c(-c3noc(C4CC4)n3)ncn2c2cccnc21 | 254 to 255 °C
2 | O=C(O)c1cccc(Nc2nc(Oc3ccccc3)nc(Oc3cccc([N+](=O)[O-])c3)n2)c1 | 225 to 228 °C
3 | CC(C)=CCN1CCN(CCC(=O)N2c3ccccc3C(=O)Nc3cccnc32)CC1 | 199 to 201 °C
4 | CN(C#N)C(=O)CCCCCCCCC(=O)N(C)C#N | 83.4 to 84 °C
5 | Brc1nc(-c2ccccc2)nc2ccccc12 | 132 °C
6 | O=C(Nc1ccc(CN2CCOCC2)c2ccccc12)c1cc(F)cc(N2CCOCC2)c1 | 192 to 193 °C
7 | CCC(=O)N1CCc2ccccc2C(Oc2ccc(C(F)(F)F)cc2)C1 (stereo not drawn) | 109 to 110 °C
8 | Cc1c(O)cc2c(c1C)N(C=O)C(C)(C)C2 | 202 to 204 °C
9 | Cc1cccc2c(Nc3ccc(OCCCCN(CCCl)CCCl)cc3)c3cccc(C(=O)NCCN(C)C)c3nc12 | 166 to 167 °C
10 | Fc1cc(Cl)c2nc(Cl)sc2c1N=C=S | 80 to 81 °C
11 | CC(C(=O)n1c(=O)oc2ccccc21)C(O)C(C)(C)C (stereo not drawn) | 90 to 92 °C
12 | Brc1ccc(OCCc2c[nH]cn2)cc1 | 162 to 165 °C
13 | Cc1[nH]cnc1CSCCCN=C(NC#N)NCCc1c[nH]cn1 | 135 to 137 °C
14 | Cc1ccc(Cl)c(NS(=O)(=O)c2nc(C)n(-c3ncccn3)n2)c1Cl | 214 to 216 °C
15 | CCOC(=O)C(=O)Nc1ccc(CC)cc1[N+](=O)[O-] | 110 to 112 °C
16 | CCOC(NC(=O)c1cccc(Cl)c1)C(N)=S (stereo not drawn) | 136 to 137 °C
17 | NCC(=O)c1ncn(Cc2ccccc2)c1N | 156 to 162 °C
18 | O=C(O)C(CBr)N(C(=O)c1ccccc1)N1C(=O)CCC1=O (stereo not drawn) | 174 to 177 °C
19 | O=C(O)C(Cc1ccccc1)C(O)CCCCCOCc1ccccc1 (stereo not drawn) | 66 to 67 °C
20 | COc1cc(Nc2c(C#N)cnc3cc(/C=C/CCCCN4CCOCC4)c(OC)cc23)c(Cl)cc1Cl | 99 to 100 °C
21 | Cc1oc(-c2ccccc2)nc1CCOc1ccc(C[C@H](NC(=O)C=Cc2ccccc2)C(=O)O)cc1 | 207 to 209 °C
22 | O=S(=O)(NCCCN1CCOCC1)C(F)(F)F | 95 to 97 °C
23 | O=C(O)CN1CC(=O)N(Cc2ccc(Cl)c([N+](=O)[O-])c2)C1=O | 167 to 168 °C

Row | SMILES | melting point
24 | O=S1(=O)c2cccc3cccc(c23)N1CCCN1CCN(c2ccccc2)CC1 | 126 °C
25 | CC(=O)N1CCC(CCC(=O)c2ccc(F)cc2)CC1 | 95 to 96 °C
26 | c1ccc(-c2csc(CN3CCN(c4ccccc4)CC3)n2)cc1 | 142 to 143 °C
27 | CC(=O)Nc1cc(Cc2ccc3c(C(=O)Nc4ccc(CN5CCN(C)CC5)c(C(F)(F)F)c4)cccc3c2)ncn1 | 202 to 204 °C
28 | CN(C)c1cccc2c1C(=O)N(C1(C(N)=O)CCCCC1)C2=O | 166 to 169 °C
29 | N#CSc1nc(I)ncc1I | 183 to 185 °C
30 | COC(CNC(=O)CN1C(=O)C(C)=C(C)C1=O)OC | 99.4 to 99.9 °C
31 | Cc1cc(N)ccc1N1CCC(N2CCOCC2)CC1 | 199 to 200 °C
32 | CCCc1ccc2nc(S(=O)(=O)CC)c(S(N)(=O)=O)n2n1 | 232 to 233 °C
33 | CCOC(=O)c1cnn2c1c(N1CCOCC1)nc1ccccc12 | 142 to 143 °C
34 | CC(=O)OCC(COC(C)=O)(NC(=O)OC(C)(C)C)C(=O)c1ccccc1 | 112 to 113 °C
35 | ClCCCON=C(Cl)c1c(Cl)cccc1Cl | 69 to 71 °C
36 | COCOCc1nc(N)c2ncc(O)nc2n1 | 210 to 212 °C
37 | CCOC(=O)c1c(CN2CCOCC2)nc2cc(OCC)c(OCC)cc2c1-c1ccc(OC)c(OC)c1 | 147 to 148 °C
38 | CCOC(=O)C(=O)Nc1nc2ccccc2s1 | 185 to 186 °C
39 | CC1NC(=O)NN=C1c1ccc(OCC(=O)NCCN2CCNCC2)c(Cl)c1 (stereo not drawn) | 208 to 210 °C
40 | CSCCC(=O)Nc1ccc(-n2nc(C(F)(F)F)cc2C(F)(F)F)cc1 | 122 to 123 °C
41 | O=C(Nc1ccccc1O)C1CCc2nc[nH]c2C1 (stereo not drawn) | 203 to 205 °C
42 | CCCCCC(=O)Nc1ccc2ccn(CCCO)c2c1 | 87 to 88 °C
43 | Brc1ccc(N2CCOCC2)cc1 | 118 to 120 °C
44 | CN(C)C1CCCN(C(=O)c2ccc(-c3[nH]nc4c3C(=O)c3c(NC(=O)NN5CCOCC5)cccc3-4)s2)C1 (stereo not drawn) | > 300 °C
45 | O=C(O)C1Cc2cc3c(-c4ccccc4Cl)noc3c(Cl)c2O1 (stereo not drawn) | 224 to 225 °C
46 | CN(Cc1ccccc1)CC1Nc2ccccc2Cn2cccc21 (stereo not drawn) | 147 to 149 °C

Row | SMILES | melting point
47 | CCNC(=O)c1c([Si](C)(C)C)ccc(/C=C/[N+](=O)[O-])c1Cl | 104 to 106 °C
48 | O=C(NCCO)c1cccc(-c2cccc3nc(Cc4cccc(C(F)(F)F)c4)oc23)c1 | 122 to 123 °C
49 | CCOC(=O)c1cn(C2CC2)c2cc(F)c(F)c(N)c2c1=O | 240 to 241 °C
50 | CC1Oc2cc(N)c([N+](=O)[O-])cc2O1 (stereo not drawn) | 139 °C
51 | NC(=O)N(O)CCNC(=O)c1cccn1Cc1ccc(Cl)cc1 | 158 to 160 °C
52 | CCCCCCCCCCOCCC(=O)O | 41.5 to 43.9 °C
53 | O=C(Nc1c(Cl)ccc2nc(N3CCNCC3)ccc12)C1(C2CCCCC2)CC1 | 219 °C
54 | O=C(O)c1ccc(Oc2nn(Cc3ccccc3)c3ccccc23)o1 | 162 to 165 °C
55 | CCOC(=O)c1ccc(NC(=O)c2ccncc2)cc1 | 143 to 145 °C
56 | CCc1nc2c(cnn2CC)c(NC2CCOCC2)c1CNC(=O)c1cccc(C(=O)NCc2ccc(Cl)c(-c3cccc(CN4CCN(C)CC4)c3)c2)c1 | 112 to 114 °C
57 | c1ccc(-c2ncc(-c3n[nH]c(-c4cccnc4)n3)cn2)cc1 | 322 to 333 °C
58 | CCNC(=O)Nc1ccc(C(O)(C(F)(F)F)C(F)(F)F)cc1 | 178 to 179 °C
59 | CN1CCN(c2ccc(C(=O)O)cc2S(=O)(=O)Nc2ccccc2)CC1 | 252 to 253 °C
60 | CC1(C)C=C(C#Cc2ccccn2)CC(C)(C)C1 | 55 to 56 °C
61 | O=C(Nc1ccc(S(=O)(=O)C(F)(F)F)cc1Cl)c1cc(S(=O)c2ccc(F)cc2)c2ccccc2c1O (stereo not drawn) | 198 to 200 °C
62 | CS(=O)(=O)c1ccc(-c2cnn(-c3csc4ccccc34)c(=O)c2-c2ccc(F)cc2)cc1 | 265 to 267 °C
63 | CCC(=O)NC(C)(C)C | 90 to 92 °C
64 | CC(=O)OC12Oc3c(C(C)(C)C)cc(C(C)(C)C)cc3C1(OC(C)=O)C(=O)c1ccccc12 (stereo not drawn) | 242 to 247 °C
65 | Cn1ncsc1=NC(=S)Nc1ccccc1 | 174 to 175 °C
66 | O=c1[nH]c(-c2ccc(CCCCN3CCN(c4nsc5ccccc45)CC3)cc2)cs1 | 140 to 145 °C
67 | COC(=O)Cn1sc2nc(C)cc(C)c2c1=O | 89 to 91 °C

Other lines, results leading:

Row | melting point | SMILES
68 | 118 to 125 °C | C[C@@H](S[C@H]1CO[C@H](/C=C/c2cccnc2)OC1)[C@](O)(Cn1cncn1)c1ccc(F)cc1F
69 | 94 to 95 °C | COc1cc(C)cc(Sc2cccc(F)c2C#N)c1
70 | 190 to 192 °C | CCN(CC)Cc1ccc2cc(COc3cccc4c3CN(C3CCC(=O)NC3=O)C4=O)sc2c1 (stereo not drawn)
71 | 143 to 145 °C | Cc1c(CC(=O)O)c2cc(O)ccc2n1C(=O)c1ccc(F)c(F)c1
72 | 54 °C | COC(=O)CN(C)c1cccc(-c2ccc(Cl)cc2)n1
73 | 151 to 153 °C | CCOc1c(C)c(N2CCN(c3ccc(OC)cc3)CC2)c(C)c2c1OC(C)(C)C2
74 | 173 to 175 °C | CCS(=O)(=O)CCC(=O)NNC(=O)N1Cc2cc(OC)ccc2Oc2ccc(Cl)cc21
75 | 129 to 130 °C | CC(C)(C)C1=C(c2cc3cc(O)ccc3o2)OCC1(C)C
76 | 56.1 °C | CCCCCC(=O)Oc1ccc(-c2ccc(C#N)cc2)cc1
77 | 222 °C | O=C(Nc1ccc2ccc(Cl)nc2n1)c1ccccc1F
78 | 88 °C | CCCCc1c(C(=O)OCC)[nH]c2c(Br)cccc2c1=O
79 | 137 to 139 °C | Cc1ccc(N=Cc2ccc(-c3ccccc3)cc2)cc1
80 | 193 °C | Nc1ccc2ccc(-c3ccccc3Cl)nc2n1
81 | 132 °C | N#CCc1cccc2c(-c3ccc(Cl)cc3)nccc12
82 | 126 °C | CCc1cccc(C)c1CNc1cc(C(=O)N2CCCC2)cc2c1nc(C)n2C
83 | 189 to 190 °C | O=C(Nc1cccnn1)N1CCN(c2ccnc(-c3ccc(F)cc3F)c2)CC1
84 | 141 to 142 °C | O=CC(=Cc1ccccc1F)C(C=O)=Cc1ccccc1F
85 | > 300 °C | COc1cc2nc(-c3cc(C)c(O)c(C)c3)[nH]c(=O)c2cc1OC

Row | melting point | SMILES
86 | 135 to 137 °C | Cc1c(-c2ccc(OCc3ccccc3)c(F)c2)[nH]c2ccc(OCc3ccccc3)cc12
87 | 134 °C | COc1ccc(-n2c(=O)n(C)c(=O)n(CC(C)(C)C)c2=O)cc1
88 | 255 to 257 °C | Nc1sc2c(c1C(=O)c1cccc3ccccc13)CCC2
89 | 155 to 156 °C | CCOC(=O)N1CCC(=C2c3ccc(Cl)cc3C=Cc3cccnc32)CC1
90 | 136 °C | CCn1cc(C(=O)O)c(=O)c2cnc(N3CCN(Cc4ccc(OC)cc4)CC3)nc21
91 | 125 to 127 °C | Cc1ccc(S(=O)(=O)OC2CCc3[nH]c4ccc(C)cc4c3C2)cc1 (stereo not drawn)
92 | 195 to 197 °C | COc1ccc2[nH]nc(N3CCN(CCCn4c(=O)[nH]c5ccccc54)CC3)c2c1
93 | 263 °C | COc1cccc(SSc2cccc(OC)c2S(N)(=O)=O)c1S(N)(=O)=O
94 | 167 to 170 °C | COc1cc(COc2ccc(N)nn2)c2ccccc2c1
95 | 154 to 155 °C | COc1ccc(C2(C#N)CCC(=O)C(C(N)=O)C2)cc1OCC1CC1 (stereo not drawn)
96 | 178 to 180 °C | COc1ccc2c(c1)CN(Cc1c[nH]c3ccccc13)C2
97 | 130 to 132 °C | CN1C(=O)N(CC(COc2ccc(-c3cccc(C#N)c3)cc2)N(O)C=O)C(=O)C1(C)C (stereo not drawn)
98 | 57 to 59 °C | CCOC(=O)CCn1c(-c2ccc(Cl)cc2)nc2cccnc21
99 | 77 to 78 °C | O=S(c1ccccc1)c1ncc(Cl)cc1F (stereo not drawn)
100 | 143 to 145 °C | COc1cccc2c(=O)c(CSC)cn(C)c12
101 | 236 to 242 °C | CCn1c(C)nc2cc(Sc3cccc4cnccc34)c([N+](=O)[O-])cc21
102 | 106 to 107 °C | CCOC(=O)Cn1ncc2c(Br)c(OC)ccc21
103 | 134 to 135 °C | CNc1cccc(NS(=O)(=O)c2ccc(N)cc2)c1
